Reference: patent publication US5525599A, “7-substituted-amino-3-substituted-3-cephem-4-carboxylic acids” (Eli Lilly and Company, priority 1993, dated 1996)
Values after ≈ are worked out from the molar mass of the structure shown.

Experiments:
Gram-positive bacteria = conditions: in words; background statement; cited from earlier work
Staph. aureus (S13E) = experiment: In vitro activity (MIC), agar dilution method; format: cell-based; conditions: Staphylococcus aureus
Description: (§1) Cephalosporins 9a-o were assayed against a broad array of Gram-positive and Gram-negative bacteria in Mueller-Hinton agar by the 2-fold serial dilution method, (Kirst, H. A.; J. Antibiot. 1982, 35, 1675).
(§2) Test compounds were diluted to an appropriate range of concentrations in 0.1M phosphate buffer (pH 7), incorporated into Mueller-Hinton agar (difco) supplemented with 1% Bacto-Supplement C (Difco) at 50° C. and allowed to solidify in petri dishes. Fresh overnight cultures of test bacteria were diluted to approximately 1×10^4 cells/mL aand applied in […] to the surface of the agar plates. The inoculated plates were incubated overnight at 35° C. in ambient air. MIC endpoints were recorded as the lowest antibiotic concentrations that inhibited the development of visible bacterial growth on the plates.

Enter. faecium (X66) = experiment: In vitro activity (MIC), agar dilution method; format: cell-based; conditions: Enterococcus faecium
Description: as §1, §2

E. coli (N10) = experiment: In vitro activity (MIC), agar dilution method; format: cell-based; conditions: Escherichia coli
Description: as §1, §2

K. pneumonia (KAE) = experiment: In vitro activity (MIC), agar dilution method; format: cell-based; conditions: Klebsiella pneumoniae
Description: as §1, §2

Strept. pyogenes (C203) = experiment: In vitro activity (MIC), agar dilution method; format: cell-based; conditions: Streptococcus pyogenes
Description: as §1, §2

K. pneumonia (X68) = experiment: In vitro activity (MIC), agar dilution method; format: cell-based; conditions: Klebsiella pneumoniae
Description: as §1, §2

Staph. aureus (V41) = experiment: In vitro activity (MIC), agar dilution method; format: cell-based; conditions: Staphylococcus aureus
Description: as §1, §2

H. influenzae (C.L.) = experiment: In vitro activity (MIC), agar dilution method; format: cell-based; conditions: Haemophilus influenzae
Description: as §1, §2

Staph. epiderm. (222) = experiment: In vitro activity (MIC), agar dilution method; format: cell-based; conditions: Staphylococcus epidermidis
Description: as §1, §2

Staph. aureus (X400) = experiment: In vitro activity (MIC), agar dilution method; format: cell-based; conditions: Staphylococcus aureus
Description: as §1, §2

E. coli (EC14) = experiment: In vitro activity (MIC), agar dilution method; format: cell-based; conditions: Escherichia coli
Description: as §1, §2

E. coli (TEM) = experiment: In vitro activity (MIC), agar dilution method; format: cell-based; conditions: Escherichia coli
Description: as §1, §2

H. influenzae (76) = experiment: In vitro activity (MIC), agar dilution method; format: cell-based; conditions: Haemophilus influenzae
Description: as §1, §2

K. pneumonia (X26) = experiment: In vitro activity (MIC), agar dilution method; format: cell-based; conditions: Klebsiella pneumoniae
Description: as §1, §2

Staph. aureus (X1.1) = experiment: In vitro activity (MIC), agar dilution method; format: cell-based; conditions: Staphylococcus aureus
Description: as §1, §2

Enter. faecalis (2041) = experiment: In vitro activity (MIC), agar dilution method; format: cell-based; conditions: Enterococcus faecalis
Description: as §1, §2

other Gram(-) bacteria = experiment: In vitro activity (MIC), agar dilution method; format: cell-based

## CN[C@H](CC(C)C)C(=O)N[C@H]1C(=O)N[C@@H](CC(N)=O)C(=O)N[C@H]2C(=O)N[C@H]3C(=O)N[C@H](C(=O)N[C@H](C(=O)O)c4cc(O)cc(O)c4-c4cc3ccc4O)[C@H](O)c3ccc(c(Cl)c3)Oc3cc2cc(c3O[C@@H]2O[C@H](CO)[C@@H](O)[C@H](O)[C@H]2O[C@H]2C[C@](C)(N)[C@H](O)[C@H](C)O2)Oc2ccc(cc2Cl)[C@H]1O [Vanc, Vancomycin, reference compound]
Gram-positive bacteria
  activity against Gram-positive bacteria including methicillin-resistant staphylococci: potent activity only against the Gram-positive bacteria including methicillin-resistant staphylococci
Staph. aureus (S13E)
  MIC: 0.5 µg/mL (≈ 0.345 µM)
Enter. faecium (X66)
  MIC: 0.5 µg/mL (≈ 0.345 µM)
E. coli (N10)
  MIC: 128 µg/mL (≈ 88.3 µM)
K. pneumonia (KAE)
  MIC: 128 µg/mL (≈ 88.3 µM)
Strept. pyogenes (C203)
  MIC: 0.5 µg/mL (≈ 0.345 µM)
K. pneumonia (X68)
  MIC: 128 µg/mL (≈ 88.3 µM)
Staph. aureus (V41)
  MIC: 0.5 µg/mL (≈ 0.345 µM)
H. influenzae (C.L.)
  MIC: 64 µg/mL (≈ 44.2 µM)
Staph. epiderm. (222)
  MIC: 0.5 µg/mL (≈ 0.345 µM)
Staph. aureus (X400)
  MIC: 0.5 µg/mL (≈ 0.345 µM)
E. coli (EC14)
  MIC: 128 µg/mL (≈ 88.3 µM)
E. coli (TEM)
  MIC: 128 µg/mL (≈ 88.3 µM)
H. influenzae (76)
  MIC: 128 µg/mL (≈ 88.3 µM)
K. pneumonia (X26)
  MIC: 128 µg/mL (≈ 88.3 µM)
Staph. aureus (X1.1)
  MIC: 0.5 µg/mL (≈ 0.345 µM)
Enter. faecalis (2041)
  MIC: 2 µg/mL (≈ 1.38 µM)
Other Gram(-) bacteria
  MIC: 128 µg/mL (≈ 88.3 µM)
